The test system of the test is Plasmodium berghei. Put plainly: Luciferase/luciferin-expressing antifolate-resistant parasites were used to infect a culture of HepG2 cells that were pre-incubated with compounds. Infected hepatocytes emit light due to the luciferase reaction. Assay results are presented as the percent inhibition of light emission compared to control. […]. The test is classed as functional. The note with it: sporozoite; for IC90: read-out: LUCIFERASE INFECTION ASSAY - IC90.

The mark [1] stands for this setting: read-out: LUCIFERASE INFECTION ASSAY - IC50.

Experimental findings from ChEMBL document CHEMBL4483862, “Open-source discovery of chemical leads for next-generation chemoprotective antimalarials” (2018) are described below.

Where only a bound is given, the exact number is not on record here.

Regarding `CC1C(=O)N(CC(O)COCc2ccccc2Cl)C(=O)N1c1ccccc1` (configuration not stated), the 90% effect concentration (IC90) is greater than 10 µM. The half-maximal inhibitory concentration (IC50) (FFLUC_HILL_SLOPE 10.9, FFLUC_R_SQUARED 0.0106, read-out: LUCIFERASE INFECTION ASSAY - IC50) was greater than 10 µM.
In the case of `Cc1cc(C(=O)N/N=C/c2ccc([N+](=O)[O-])s2)nn1-c1c(Cl)cc(Cl)cc1Cl`, the IC90 was 4.83 µM. Besides, the concentration for half-maximal inhibition (IC50) (FFLUC_HILL_SLOPE 59.9, FFLUC_R_SQUARED 0.709, PBLUC_HILL_SLOPE 2.3, PBLUC_R_SQUARED 0.454, read-out: LUCIFERASE INFECTION ASSAY - IC50) is 1.86 µM.
On to `CC(=O)Oc1ccc(-c2ccc(C(=O)OCC(=O)Nc3sccc3C(N)=O)cc2)cc1`, for which the concentration for an effect of 90% (IC90) is greater than 10 µM. The IC50 (HEPG2TOX_HILL_SLOPE 11.3, HEPG2TOX_R_SQUARED 0.976, PBLUC_HILL_SLOPE 2.77, PBLUC_R_SQUARED 0.661, read-out: LUCIFERASE INFECTION ASSAY - IC50) came out at 5.01 µM.
For `CCOC(=O)C1=C(CN(C)C2CCCCC2)NC(=O)NC1`, the IC90 was greater than 10 µM. For the same compound, under setting [1], the half-inhibitory concentration (IC50) is greater than 10 µM.
Regarding `COc1cc(OC)c(C2NC(=O)c3ccc(Cl)cc3N2)cc1OC` (configuration not stated), the IC90 is greater than 10 µM. The IC50 (HEPG2TOX_HILL_SLOPE 8.48, HEPG2TOX_R_SQUARED 0.352, read-out: LUCIFERASE INFECTION ASSAY - IC50) is greater than 10 µM.
Regarding `CCN(c1ccccc1)S(=O)(=O)c1ccc(C(=O)NC2CCCc3ccccc32)cc1` (configuration not stated), the IC90 is greater than 10 µM. The concentration for half-maximal inhibition (IC50) under setting [1] was greater than 10 µM.
Turning to `CC(Oc1ccc(Oc2ccc(C(F)(F)F)cc2)cc1)C(=O)N1CCN(c2ccc(C(F)(F)F)cn2)CC1` (configuration not stated), the 90% effect concentration (IC90) was greater than 6.12 µM. For the setting “HEPG2TOX_HILL_SLOPE 2.54, HEPG2TOX_R_SQUARED 0.907, PBLUC_HILL_SLOPE 2.4, PBLUC_R_SQUARED 0.3, read-out: LUCIFERASE INFECTION ASSAY - IC50”, the IC50 came out at 3 µM.
Regarding `Cc1ccc(C(=O)C(=O)Nc2cc(S(=O)(=O)N3CCCCC3)ccc2OC(C)C)cc1`, the 90% effect concentration (IC90) was greater than 10 µM. In addition, where the note is “FFLUC_HILL_SLOPE 11.8, FFLUC_R_SQUARED 0.613, read-out: LUCIFERASE INFECTION ASSAY - IC50”, the IC50 is greater than 10 µM.
Turning to `CCCCNC(=O)CN1CCN(C(=O)Cc2c(C)nc3ccccc3c2C)CC1`, the IC90 is greater than 10 µM. The IC50 under setting [1] is greater than 10 µM.
Turning to `Cc1ccc(-c2cc(=O)n(-c3ccc(F)cc3)[nH]2)cc1`, the IC90 came to 11.6 µM. Further, the concentration for half-maximal inhibition (IC50) (HEPG2TOX_HILL_SLOPE 8.74, HEPG2TOX_R_SQUARED 0.98, PBLUC_HILL_SLOPE 2.08, PBLUC_R_SQUARED 0.732, read-out: LUCIFERASE INFECTION ASSAY - IC50) was found to be 4.04 µM.
On to `Oc1c(Br)cc(Cl)cc1/C=C/c1ccc2cccc(O)c2n1`, for which the 90% effect concentration (IC90) is greater than 8.76 µM. In addition, the IC50 (PBLUC_HILL_SLOPE 4.36, PBLUC_R_SQUARED 0.823, read-out: LUCIFERASE INFECTION ASSAY - IC50) amounted to 5.59 µM.
As for `Cc1ccc(C)c(S(=O)(=O)Oc2ccccc2C(=O)OCC(=O)c2c(C)[nH]c3ccccc23)c1`, the concentration for an effect of 90% (IC90) was greater than 10 µM. Also, the half-maximal inhibitory concentration (IC50) (HEPG2TOX_HILL_SLOPE 0.276, HEPG2TOX_R_SQUARED 0.379, PBLUC_HILL_SLOPE 12.5, PBLUC_R_SQUARED 0.167, read-out: LUCIFERASE INFECTION ASSAY - IC50) was greater than 10 µM.
With `CCN(CC)C(=O)CSc1nnc2nnc3cc(C)ccc3n12`, the concentration for an effect of 90% (IC90) was greater than 9.99 µM. Also, the half-inhibitory concentration (IC50) under setting [1] was greater than 9.99 µM.
For `CC(C)c1ccc(-c2nnc(NC(=O)CNC(=O)c3cccc(S(=O)(=O)N(C)C)c3)s2)cc1`, the concentration for an effect of 90% (IC90) is greater than 10 µM. Besides, the IC50 (PBLUC_HILL_SLOPE 2.11, PBLUC_R_SQUARED 0.538, read-out: LUCIFERASE INFECTION ASSAY - IC50) amounted to 5.39 µM.
Consider `C=C(CS(=O)(=O)c1ccccc1)C(=O)Nc1ccc(C(F)(F)F)cc1`, for which the 90% effect concentration (IC90) is 7.91 µM. Moreover, the 50% inhibitory concentration (IC50) (HEPG2TOX_HILL_SLOPE 10, HEPG2TOX_R_SQUARED 0.961, PBLUC_HILL_SLOPE 2.89, PBLUC_R_SQUARED 0.554, read-out: LUCIFERASE INFECTION ASSAY - IC50) was determined as 3.7 µM.
In the case of `COc1ccc(-c2nnc3ccc(-c4ccc5ncccc5c4)cn23)cc1OC`, the IC90 was 0.0668 µM. Moreover, the IC50 (HEPG2TOX_HILL_SLOPE 0.239, HEPG2TOX_R_SQUARED 0.342, PBLUC_HILL_SLOPE 2.22, PBLUC_R_SQUARED 0.642, read-out: LUCIFERASE INFECTION ASSAY - IC50) is 0.0248 µM.
Regarding `OC1CCC(Nc2ccc3ncc(Br)n3n2)CC1` (configuration not stated), the concentration for an effect of 90% (IC90) was greater than 10.6 µM. The IC50 (HEPG2TOX_HILL_SLOPE 1.63, HEPG2TOX_R_SQUARED 0.931, read-out: LUCIFERASE INFECTION ASSAY - IC50) is greater than 10.6 µM.
As to `O=C(Nc1ccccc1)Nc1ccc2cc(C(=O)c3ccccc3O)cnc2c1`, the IC90 turned out to be 4.81 µM. Moreover, the IC50 (PBLUC_HILL_SLOPE 1.23, 8.91, PBLUC_R_SQUARED 0.971, 0.189, read-out: LUCIFERASE INFECTION ASSAY - IC50) turned out to be 3.52 µM.
Turning to `Cc1ccccc1NC(=O)Nc1scc(S(=O)(=O)C(C)C)c1Cl`, the IC90 was greater than 8.85 µM. For the same compound, the IC50 under setting [1] is greater than 8.85 µM.
`O=C(/C=C/c1ccc2ccccc2n1)N1CCCC(c2nc3ccccc3[nH]2)C1` (configuration not stated): the 90% effect concentration (IC90) is 9.5 µM. Also, for the setting “HEPG2TOX_HILL_SLOPE 11.0, 10.5, HEPG2TOX_R_SQUARED 0.675, 0.360, PBLUC_HILL_SLOPE 2.71, 0.363, PBLUC_R_SQUARED 0.567, 0.526, read-out: LUCIFERASE INFECTION ASSAY - IC50”, the IC50 is 2.81 µM.
As to `CCc1cc(=O)n2ncc(-c3ccc(Cl)cc3)c2[nH]1`, the IC90 worked out at 3.53 µM. Further, the half-maximal inhibitory concentration (IC50) (HEPG2TOX_HILL_SLOPE 2.33, HEPG2TOX_R_SQUARED 0.563, PBLUC_HILL_SLOPE 7.25, PBLUC_R_SQUARED 0.422, read-out: LUCIFERASE INFECTION ASSAY - IC50) amounted to 2.61 µM.
`COc1cc(OC)cc(OCC(O)Cn2ccnc2)c1` (configuration not stated): the IC90 was greater than 11.9 µM. Further, under setting [1], the IC50 is greater than 11.9 µM.
`CC(=O)OC1CCC2(C)C3CCC4(C)C(C5=CC(=O)OC5)CCC4(O)C3CCC2(O)C1` (configuration not stated): the concentration for an effect of 90% (IC90) was greater than 7.63 µM. In addition, the IC50 (HEPG2TOX_HILL_SLOPE 2.67, HEPG2TOX_R_SQUARED 0.733, PBLUC_HILL_SLOPE 2.15, PBLUC_R_SQUARED 0.208, read-out: LUCIFERASE INFECTION ASSAY - IC50) amounted to 3 µM.
Take `O=C(CN1CCN(C(=O)C2COc3ccccc3O2)CC1)Nc1ccccc1-c1ccccc1` (configuration not stated): the concentration for an effect of 90% (IC90) was greater than 10 µM. The IC50 under setting [1] was greater than 10 µM.
Take `Cc1noc(C)c1CSc1nc(C(C)(C)C)nc2c1c(=O)n(C)c(=O)n2C`: the IC90 is greater than 10 µM. Further, the half-inhibitory concentration (IC50) under setting [1] is greater than 10 µM.
Turning to `CCc1cccc2c(C3=CCN(c4ncccn4)CC3)c[nH]c12`, the IC90 was greater than 10 µM. The IC50 under setting [1] is greater than 10 µM.
Take `Cc1cc(OCCCC(=O)NC2CCN(Cc3ccccc3)CC2)ccc1Cl`: the IC90 was greater than 10 µM. Also, the IC50 (PBLUC_HILL_SLOPE 3.22, PBLUC_R_SQUARED 0.455, read-out: LUCIFERASE INFECTION ASSAY - IC50) turned out to be 5.35 µM.
`CCN(CC)S(=O)(=O)c1cc(NC(=O)C2CCN(c3ncnc4sc(C)c(C)c34)CC2)ccc1Cl`: the 90% effect concentration (IC90) came to 3.98 µM. In addition, the IC50 (HEPG2TOX_HILL_SLOPE 2.3, HEPG2TOX_R_SQUARED 0.823, PBLUC_HILL_SLOPE 13, PBLUC_R_SQUARED 0.57, read-out: LUCIFERASE INFECTION ASSAY - IC50) amounted to 3.36 µM.
In the case of `CCCCNC(=O)c1c(NC(=O)c2ccc(F)c(F)c2)nc2ccccn12`, the 90% effect concentration (IC90) is 0.748 µM. The concentration for half-maximal inhibition (IC50) (FFLUC_HILL_SLOPE 25.4, FFLUC_R_SQUARED 0.228, HEPG2TOX_HILL_SLOPE 1.03, HEPG2TOX_R_SQUARED 0.844, PBLUC_HILL_SLOPE 2.52, PBLUC_R_SQUARED 0.719, read-out: LUCIFERASE INFECTION ASSAY - IC50) was 0.313 µM.
Regarding `O=c1cc(NCCC2=CCCCC2)c2ccccc2o1`, the IC90 stood at 3.21 µM. In addition, for the setting “FFLUC_HILL_SLOPE 16, FFLUC_R_SQUARED 0.221, HEPG2TOX_HILL_SLOPE 2.34, HEPG2TOX_R_SQUARED 0.809, PBLUC_HILL_SLOPE 2.17, PBLUC_R_SQUARED 0.461, read-out: LUCIFERASE INFECTION ASSAY - IC50”, the IC50 is 1.17 µM.
On to `COc1ccc(N(Cc2nc(-c3cccs3)oc2C)S(=O)(=O)c2cccs2)cc1`, for which the IC90 was 0.446 µM. For the same compound, the half-inhibitory concentration (IC50) (HEPG2TOX_HILL_SLOPE 2.9, HEPG2TOX_R_SQUARED 0.761, PBLUC_HILL_SLOPE 1.87, PBLUC_R_SQUARED 0.806, read-out: LUCIFERASE INFECTION ASSAY - IC50) was 0.137 µM.
With `CC(C)(C)c1ccc(C(=O)NNC(=S)Nc2ccc(Cl)cc2)cc1`, the 90% effect concentration (IC90) is 8.97 µM. Where the note is “PBLUC_HILL_SLOPE 14.6, PBLUC_R_SQUARED 0.46, read-out: LUCIFERASE INFECTION ASSAY - IC50”, the concentration for half-maximal inhibition (IC50) came to 7.71 µM.
As for `CCOC(=O)c1sc(NC(=O)Nc2ccc(Cl)c(Cl)c2)cc1C`, the 90% effect concentration (IC90) came to 2.36 µM. Further, the IC50 (HEPG2TOX_HILL_SLOPE 22.1, HEPG2TOX_R_SQUARED 0.877, PBLUC_HILL_SLOPE 3.44, PBLUC_R_SQUARED 0.676, read-out: LUCIFERASE INFECTION ASSAY - IC50) turned out to be 1.25 µM.
Take `CC(C)c1nc(-c2c(N)n(Cc3ccccc3)c(=O)n(C)c2=O)sc1C(=O)c1cc(F)ccc1F`: the IC90 is greater than 10 µM. For the same compound, the IC50 under setting [1] is 9.55 µM.
On to `CS(=O)(=O)c1ccc(-c2cnc3c(NC=O)cc(-c4ccccc4)cn23)cc1`, for which the concentration for an effect of 90% (IC90) is greater than 8.43 µM. Further, the IC50 (PBLUC_HILL_SLOPE 4.26, PBLUC_R_SQUARED 0.756, read-out: LUCIFERASE INFECTION ASSAY - IC50) is 6.43 µM.
`COc1ccc2c(Cn3ncc(Cl)c(Cl)c3=O)cc(=O)oc2c1`: the IC90 is 7.19 µM. Also, the concentration for half-maximal inhibition (IC50) under setting [1] turned out to be 4.21 µM.

What is called IC50 is the midpoint of a concentration-inhibition curve. For orientation: IC90 means the concentration needed for an effect of 90%.
